Test [1] concerns Sca-1+lin- mouse BM cells. The experiment in a line: Chemotaxis assay, CXCL12 induced migration of Sca-1+lin- mouse BM cells. Type of test: cell-based. The method, then:
Chemotaxis assays were performed using 96-well chemotaxis chambers (NeuroProbe, Gaithersburg, Md.) in accordance with manufacturer's instructions as described previously with minor variations (Christopherson K W, 2nd, et al. J Immunol. 2002; 169:7000-7008; Christopherson K W, 2nd, et al. Blood. 2001; 98:3562-3568; Christopherson K, 2nd, et al. Immunol Lett. 1999; 69:269-273). Briefly 300 μl of RPMI supplemented with 10% FBS and either 0, 100, 200, and 400 ng/ml of mouse CXCL12 chemokine was added to the lower chamber. Ten-thousand sorted cells in 50 μL of media were added to the upper side of the membrane (5.7 mm diameter, 5 μm pore size, polycarbonate membrane.)
Total cell number in the lower well was obtained by counting using hemocytometer after 4 hours of incubation at 37° C., 5% CO2. Percent migration was calculated by dividing the number of the cells in the lower well by the total cell input multiplied by 100 and subtracting random migration (always less than 5%) to the lower chamber without chemokine presence. Three samples were analyzed separately in triplicate, and then the data averaged for statistical analysis.
Inhibition of endogenous CD26/DPPIV activity was accomplished by pretreatment of cells with 5 mM Diprotin A (Peptides International, Louisville, Ky.) for 15 minutes at 37° C. Diprotin A was allowed to remain in the chemotaxis chamber during the assay. […]

For another test, the target named is T1, CD26/DPPIV (Mus musculus, UniProt P28843).
T1 construct: endogenous in cells; host or cells: sorted mouse (C57BL/6) bone marrow cells
T1 sequence (P28843 whole entry): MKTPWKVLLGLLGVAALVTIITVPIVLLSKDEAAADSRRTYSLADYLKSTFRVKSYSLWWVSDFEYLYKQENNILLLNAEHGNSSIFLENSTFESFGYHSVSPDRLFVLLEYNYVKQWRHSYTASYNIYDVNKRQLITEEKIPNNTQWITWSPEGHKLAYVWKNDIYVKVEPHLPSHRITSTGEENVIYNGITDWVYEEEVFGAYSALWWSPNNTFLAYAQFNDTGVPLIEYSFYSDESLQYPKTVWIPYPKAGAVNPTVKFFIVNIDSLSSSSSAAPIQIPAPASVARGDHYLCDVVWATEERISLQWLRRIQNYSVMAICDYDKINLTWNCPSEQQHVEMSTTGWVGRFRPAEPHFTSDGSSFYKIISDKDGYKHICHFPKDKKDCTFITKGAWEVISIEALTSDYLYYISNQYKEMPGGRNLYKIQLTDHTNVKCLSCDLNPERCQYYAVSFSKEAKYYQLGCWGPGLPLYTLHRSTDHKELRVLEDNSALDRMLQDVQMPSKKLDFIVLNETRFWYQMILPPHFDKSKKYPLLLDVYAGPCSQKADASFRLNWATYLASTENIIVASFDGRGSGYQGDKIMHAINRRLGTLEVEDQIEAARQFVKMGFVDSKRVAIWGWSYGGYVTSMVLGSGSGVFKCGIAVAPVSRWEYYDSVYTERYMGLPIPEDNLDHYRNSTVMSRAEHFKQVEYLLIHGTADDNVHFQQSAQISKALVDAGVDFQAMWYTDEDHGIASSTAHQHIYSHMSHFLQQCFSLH
Nature of the test: CD26/DPPIV peptidase activity of C57BL/6 BM cells (Gly-Pro-pNA). Type of test: cell-based. The method, then: Proteolytic activity was determined by measurement of the amount of p-nitroanilide (pNA) formed in the supernatant at 405 nm. One thousand cells per well in the 96-well flat-bottomed plate were incubated at 37° C. with 4 mM Gly-Pro-pNA in 100 μL PBS buffer (pH 7.4) containing 10 mg/ml BSA. Absorbance was measured at 405 nm on a microplate spectrofluorometer (SpectraMax 190, Molecular Devices, Sunnyvale, Calif.) every two minutes and pmoles of pNA formed were calculated by comparison to a pNA standard curve. The results were plotted as pmoles pNA versus minutes and the slope was calculated at the linear portion of the curve giving a measure of DPPIV activity expressed as pmoles/min (U) per 1000 cells. Tests were run using three separate samples (n=3 for each sample); cell-free blanks, substrate-free blanks were run in parallel.

A further test concerns C57BL/6 mice. Nature of the test: G-CSF induced mobilization of HSC/HPC in C57BL/6 mice (progenitor cell assays of peripheral blood). Type of test: in vivo. The settings on record: 5 μmol/mouse 2×/day s.c. alone, without G-CSF.

Turning to Ile-Pro-Ile [Diprotin A], in test [1] (Diprotin A treated Sca-1+lin- BM cells from C57BL/6 mice), the “increase in CXCL12-induced migratory response” value is “two-fold”. Besides, the “effect on CXCL12-induced migration of CD26-/- cells” value in test [1] (Diprotin A treatment of CD26-/- Sca-1+lin- cells compared to untreated CD26-/- cells) was “no further enhancing effect”. The “CD26 peptidase activity with inhibitor treatment” value on CD26/DPPIV (C57BL/6 BM cells, P<0.01) is given as “rapidly lost”. For the same substance, on CD26/DPPIV (cells washed 15 minutes post inhibitor treatment), the “recovery of CD26 activity begins, time post treatment” value is given as “within four hours”. For the same substance, the “effect on the mobilization of progenitors, inhibitor alone” value in the test with C57BL/6 mice was “little or no effect”.

Values taken from US20080085264A1, “METHODS FOR ENHANCING STEM CELL ENGRAFTMENT DURING TRANSPLANTATION” (priority 2003, published 2008).
